Earlier results in patent US8591947B2, “Dual controlled release dosage form” (Osmotica Kereskedelmi és Szolgáltató KFT, priority 2001, dated 2013).
Where a name gives a salt, the structure may show the parent alone.

SMILES	Solubility of component in water (U.S.P. term)
CC(C)NCC(O)COc1cccc2[nH]ccc12 (centres unmarked) [pindolol]	practically insoluble
NC(=O)N1c2ccccc2C=Cc2ccccc21 [carbamazepine]	practically insoluble
COCCc1ccc(OCC(O)CNC(C)C)cc1 (centres unmarked) [metoprolol tartrate]	very soluble
Cc1cc2c(s1)Nc1ccccc1N=C2N1CCN(C)CC1 [olanzapine]	practically insoluble
CC[C@H]1OC(=O)[C@H](C)[C@@H](O[C@H]2C[C@@](C)(OC)[C@@H](O)[C@H](C)O2)[C@H](C)[C@@H](O[C@@H]2O[C@H](C)C[C@H](N(C)C)[C@H]2O)[C@](C)(O)C[C@@H](C)CN(C)[C@H](C)[C@@H](O)[C@]1(C)O [azithromycin dihydrate]	practically insoluble
NCC1(CC(=O)O)CCCCC1 [gabapentin]	freely soluble
C[C@H]1c2cccc(O)c2C(=O)C2=C(O)[C@]3(O)C(=O)C(C(N)=O)=C(O)[C@@H](N(C)C)[C@@H]3[C@@H](O)[C@@H]21 [doxycycline hydrate]	soluble
O=C1N=C([O-])NC1(c1ccccc1)c1ccccc1.[Na+] [phenyloin sodium]	soluble
COc1ccc(Cl)cc1C(=O)NCCc1ccc(S(=O)(=O)NC(=O)NC2CCCCC2)cc1 [glyburide]	practically insoluble
CCOC(=O)[C@H](CCc1ccccc1)N[C@@H](C)C(=O)N1[C@H](C(=O)O)C[C@@H]2CCC[C@@H]21 [ramipril]	slightly soluble
CN(C)CCC=C1c2ccccc2CCc2ccccc21 [amitriptyline]	freely soluble
CCOC(=O)C1=C(COCCN)NC(C)=C(C(=O)OC)C1c1ccccc1Cl (centres unmarked) [amlodipine besylate]	slightly soluble
CS(=O)(=O)c1ccc(C2=C(c3ccccc3)C(=O)OC2)cc1 [rofecoxib]	practically insoluble
Cl.O=C(c1ccc(OCCN2CCCCC2)cc1)c1c(-c2ccc(O)cc2)sc2cc(O)ccc12 [ralozifene HCL]	very slightly soluble
CNC(=C[N+](=O)[O-])NCCSCc1ccc(CN(C)C)o1 [ranitidine HCl]	very soluble
CC(C)NCC(O)COc1cccc2ccccc12 (centres unmarked) [propranolol HCl]	soluble
CCCc1nn(C)c2c(=O)[nH]c(-c3cc(S(=O)(=O)N4CCN(C)CC4)ccc3OCC)nc12 [sildenafil citrate]	slightly soluble
COc1ccc([C@@H]2Sc3ccccc3N(CCN(C)C)C(=O)[C@@H]2OC(C)=O)cc1 [diltiazem HCl]	freely soluble
CCOC(=O)[C@H](CCc1ccccc1)N[C@H]1CCc2ccccc2N(CC(=O)O)C1=O [benazepril]	soluble
CCCCc1nc(Cl)c(CO)n1Cc1ccc(-c2ccccc2-c2nn[nH]n2)cc1 [losartan potassium]	freely soluble
COc1cccc(C2(O)CCCCC2CN(C)C)c1 (centres unmarked) [tramadol HCl]	freely soluble
CC[C@H](C)C(=O)O[C@H]1C[C@H](O)C=C2C=C[C@H](C)[C@H](CC[C@@H](O)C[C@@H](O)CC(=O)O)[C@H]21 [pravastatin sodium]	soluble
Cc1cccc(CN2CCN(C(c3ccccc3)c3ccc(Cl)cc3)CC2)c1 (centres unmarked) [meclizine HCl]	soluble

SMILES	Solubility of component in water (U.S.P. term)
CC12CC3CC(C)(C1)CC(N)(C3)C2 [memantine HCl]	slightly soluble
CC(C)Cc1ccc(C(C)C(=O)O)cc1 (centres unmarked) [ibuprofen]	very slightly soluble
O=c1n(CCCN2CCN(c3cccc(Cl)c3)CC2)nc2ccccn12 [trazodone HCl]	sparingly soluble
COc1ccc2c3c1O[C@H]1C[C@@H](O)C=C[C@@]31CCN(C)C2 [galantamine HBr]	sparingly soluble
OCc1cc(C(O)CNCCCCCCOCCCCc2ccccc2)ccc1O (centres unmarked) [salmeterol]	sparingly soluble
CN(C)CCC=C1c2ccccc2C=Cc2ccccc21 [cyclobenzaprine HCl]	freely soluble
Fc1ccc([C@@H]2CCNC[C@H]2COc2ccc3c(c2)OCO3)cc1 [paroxetine HCl]	slightly soluble
COc1ccc2c3c1O[C@H]1C(=O)CC[C@H]4[C@@H](C2)N(C)CC[C@]314.O=C(O)C(O)C(O)C(=O)O [hydrocodone bitartrate]	soluble
CC(NC(C)(C)C)C(=O)c1cccc(Cl)c1 (centres unmarked) [bupropion HCl]	soluble
CCC(=O)O[C@@H](O[P@](=O)(CCCCc1ccccc1)CC(=O)N1C[C@H](C2CCCCC2)C[C@H]1C(=O)O)C(C)C [fosinopril sodium]	soluble
COc1cc2nc(N3CCN(C(=O)C4COc5ccccc5O4)CC3)nc(N)c2cc1OC (centres unmarked) [doxazosin mesylate]	slightly soluble
Nc1nc2c(ncn2COCCO)c(=O)[nH]1 [acyclovir]	slightly soluble
CCC(=O)O[C@](Cc1ccccc1)(c1ccccc1)[C@H](C)CN(C)C.Cl [propoxiphene HCl]	freely soluble
CC(=O)Oc1ccccc1C(=O)O [aspirin]	slightly soluble
COC(=O)[C@H](c1ccccc1Cl)N1CCc2sccc2C1 [clopidogrel bisulfate]	practically insoluble
NCCCC[C@H](N[C@@H](CCc1ccccc1)C(=O)O)C(=O)N1CCC[C@H]1C(=O)O [lisinopril]	soluble
CCN(C)C(=O)Oc1cccc([C@H](C)N(C)C)c1 [rivastigmine hydrogen tartrate]	very soluble
CCC(=O)O[C@]1(C(=O)SCF)[C@H](C)C[C@H]2[C@@H]3C[C@H](F)C4=CC(=O)C=C[C@]4(C)[C@@]3(F)[C@@H](O)C[C@@]21C [fluticasone propionate]	practically insoluble
CN(C)CCCC1(c2ccc(F)cc2)OCc2cc(C#N)ccc21 (centres unmarked) [citalopram]	sparingly soluble
COc1ccc2c3c1O[C@H]1C(=O)CC[C@@]4(O)[C@@H](C2)N(C)CC[C@]314 [oxycodone]	soluble
CC(CN1c2ccccc2Sc2ccccc21)N(C)C (centres unmarked) [promethazine HCl]	soluble
CC(=O)Nc1ccc(O)cc1 [acetaminophen]	very slightly soluble
COc1cc(N)c(Cl)cc1C(=O)NC1CCN(CCCOc2ccc(F)cc2)CC1OC (centres unmarked) [cisapride monohydrate]	practically insoluble

SMILES	Solubility of component in water (U.S.P. term)
CNS(=O)(=O)Cc1ccc2[nH]cc(CCN(C)C)c2c1 [sumatriptan]	soluble
Oc1ncnc2[nH]ncc12 [allopurinol]	very slightly soluble
Cc1ccc(-c2cc(C(F)(F)F)nn2-c2ccc(S(N)(=O)=O)cc2)cc1 [celecoxib]	practically insoluble
C[C@]12C=CC(=O)C=C1CC[C@@H]1[C@@H]2C(=O)C[C@@]2(C)[C@H]1CC[C@]2(O)C(=O)CO [prednisone]	very slightly soluble
CN[C@H]1CC[C@@H](c2ccc(Cl)c(Cl)c2)c2ccccc21 [sertraline HCl]	slightly soluble
OC(Cn1cncn1)(Cn1cncn1)c1ccc(F)cc1F [fluconazole]	slightly soluble
CCOC(=O)[C@H](CCc1ccccc1)N[C@@H](C)C(=O)N1Cc2ccccc2C[C@H]1C(=O)O [quinapril]	freely soluble
C[C@H](CS)C(=O)N1CCC[C@H]1C(=O)O [captopril]	freely soluble
C[C@@H]1C[C@H]2[C@@H]3CCC4=CC(=O)C=C[C@]4(C)[C@@]3(Cl)[C@@H](O)C[C@]2(C)[C@@]1(OC(=O)c1ccco1)C(=O)CCl [mometasone furoate]	practically insoluble
Cc1c(OCC(F)(F)F)ccnc1C[S+]([O-])c1nc2ccccc2[nH]1 (centres unmarked) [lansoprazole]	practically insoluble
CN(CCOc1ccc(CC2SC(=O)NC2=O)cc1)c1ccccn1 (centres unmarked) [rosiglitazone maleate]	soluble
COc1ccc2[nH]c([S+]([O-])Cc3ncc(C)c(OC)c3C)nc2c1 (centres unmarked) [omeprazole]	very slightly soluble
O=[N+]([O-])O[C@@H]1CO[C@H]2[C@@H]1OC[C@@H]2O [isosorbide mononitrate]	freely soluble
COCCCOc1ccnc(C[S+]([O-])c2nc3ccccc3[nH]2)c1C (centres unmarked) [rabeprazole sodium]	very soluble
Clc1cccc(Cl)c1N=C1NCCN1 [clonidine HCl]	soluble
O=C1CC2(CCCC2)CC(=O)N1CCCCN1CCN(c2ncccn2)CC1 [buspirone HCl]	freely soluble
CCc1ccc(CCOc2ccc(CC3SC(=O)NC3=O)cc2)nc1 (centres unmarked) [pioglitazone HCl]	practically insoluble
COc1ccccc1OCCNCC(O)COc1cccc2[nH]c3ccccc3c12 (centres unmarked) [carvedilol]	practically insoluble
CC(C)(C)NCC(O)c1ccc(O)c(CO)c1 (centres unmarked) [albuterol]	sparingly soluble
CCOC(=O)[C@H](CCc1ccccc1)N[C@@H](C)C(=O)N1CCC[C@H]1C(=O)O [enalapril maleate]	sparingly soluble
CC[C@@H](C(N)=O)N1CCCC1=O [levetiracetam]	very soluble
COC(=O)C1=C(C)NC(C)=C(C(=O)OCC(C)C)C1c1ccccc1[N+](=O)[O-] (centres unmarked) [nisoldipine]	practically insoluble
